Reference: the supplement of paper PMC13380429

Tests used:
Details in all cases: 72 h
HepG2 [1] = test: cell viability relative to DMSO; higher = less toxic
Vero E6 [2] = test: as above
Caco-2 [3] = test: as above
Calu-3 [4] = test: as above
U2OS [5] = test: as above
HepG2 [6] = test: relative viability EC50 (midpoint between 100% and the lowest measured viability); higher = less toxic
Vero E6 [7] = test: as above
Caco-2 [8] = test: as above
Calu-3 [9] = test: as above
U2OS [10] = test: as above
HepG2 [11] = test: drug sensitivity score (DSS) for viability; higher = more toxic; extreme values may be limits of the assay
Vero E6 [12] = test: as above
Caco-2 [13] = test: as above
Calu-3 [14] = test: as above
U2OS [15] = test: as above

| Structure (SMILES) | cell viability (HepG2 [1]; 1 nM) [%] | cell viability (HepG2 [1]; 10 nM) [%] | cell viability (HepG2 [1]; 100 nM) [%] | cell viability (HepG2 [1]; 1000 nM) [%] | cell viability (HepG2 [1]; 10000 nM) [%] | cell viability (Vero E6 [2]; 1 nM) [%] | cell viability (Vero E6 [2]; 10 nM) [%] | cell viability (Vero E6 [2]; 100 nM) [%] | cell viability (Vero E6 [2]; 1000 nM) [%] | cell viability (Vero E6 [2]; 10000 nM) [%] | cell viability (Caco-2 [3]; 1 nM) [%] | cell viability (Caco-2 [3]; 10 nM) [%] | cell viability (Caco-2 [3]; 100 nM) [%] | cell viability (Caco-2 [3]; 1000 nM) [%] | cell viability (Caco-2 [3]; 10000 nM) [%] | cell viability (Calu-3 [4]; 1 nM) [%] | cell viability (Calu-3 [4]; 10 nM) [%] | cell viability (Calu-3 [4]; 100 nM) [%] | cell viability (Calu-3 [4]; 1000 nM) [%] | cell viability (Calu-3 [4]; 10000 nM) [%] | cell viability (U2OS [5]; 1 nM) [%] | cell viability (U2OS [5]; 10 nM) [%] | cell viability (U2OS [5]; 100 nM) [%] | cell viability (U2OS [5]; 1000 nM) [%] | cell viability (U2OS [5]; 10000 nM) [%] | relative viability EC50 (HepG2 [6]) [µM] | relative viability EC50 (Vero E6 [7]) [µM] | relative viability EC50 (Caco-2 [8]) [µM] | relative viability EC50 (Calu-3 [9]) [µM] | relative viability EC50 (U2OS [10]) [µM] | drug sensitivity score (HepG2 [11]) | drug sensitivity score (Vero E6 [12]) | drug sensitivity score (Caco-2 [13]) | drug sensitivity score (Calu-3 [14]) | drug sensitivity score (U2OS [15]) |
| --- | --- | --- | --- | --- | --- | --- | --- | --- | --- | --- | --- | --- | --- | --- | --- | --- | --- | --- | --- | --- | --- | --- | --- | --- | --- | --- | --- | --- | --- | --- | --- | --- | --- | --- | --- |
| Cc1cc(C)n(-c2cccc([C@H](CC(=O)O)CN3CC[C@@H](CCc4ccc5c(n4)NCCC5)C3)c2)n1 [integrin-antagonist-1] | 107 | 97.8 | 104 | 97.8 | 99.9 | 99.2 | 102 | 105 | 95 | 99.1 | 104 | 102 | 94.4 | 99 | 105 | 92.1 | 98 | 101 | 96.6 | 98.4 | 104 | 95.6 | 104 | 103 | 97.2 | > 10 | > 10 | > 10 | > 10 | > 10 | 0 | 0 | 0 | 0 | 0 |
| O=C(Nc1cnn2ccc(N3CCC[C@@H]3c3cc(F)ccc3F)nc12)N1CC[C@H](O)C1 [larotrectinib] | 98.1 | 108 | 103 | 105 | 103 | 97.9 | 94.3 | 101 | 105 | 93.6 | 93.9 | 92.8 | 85.3 | 101 | 86 | 96.8 | 106 | 94.9 | 94.7 | 112 | 97.2 | 105 | 97.9 | 98.1 | 99.6 | > 10 | > 10 | > 10 | > 10 | > 10 | 0 | 0 | 0 | 0 | 0 |
| CCC/C=C1\OC(=O)C2=C1CCC=C2 [ligustilide] | 106 | 106 | 111 | 94.6 | 110 | 93.8 | 101 | 102 | 100 | 106 | 100 | 104 | 113 | 122 | 83.6 | 100 | 88.8 | 103 | 101 | 106 | 96.2 | 101 | 101 | 95.4 | 94.7 | > 10 | > 10 | > 10 | > 10 | > 10 | 0 | 0 | 0.1 | 0 | 0 |
| N#C/C(=C1/SC[C@@H](c2ccc(Cl)cc2Cl)S1)n1ccnc1 [luliconazole] | 104 | 105 | 97.5 | 105 | 96 | 101 | 99 | 93.8 | 102 | 94.5 | 102 | 98.1 | 96.7 | 90.6 | 89.7 | 95.8 | 109 | 96.8 | 95.7 | 89.6 | 100 | 100 | 98.9 | 96.7 | 96.9 | > 10 | > 10 | > 10 | > 10 | > 10 | 0 | 0 | 0 | 0 | 0 |
| Cc1ccc(Nc2c(F)cccc2Cl)c(CC(=O)O)c1 [lumiracoxib] | 97 | 103 | 109 | 106 | 118 | 95.4 | 94.8 | 105 | 100 | 100 | 93 | 97 | 95 | 100 | 107 | 93.7 | 93.9 | 90.8 | 98.9 | 104 | 94.1 | 98.7 | 94.8 | 103 | 105 | > 10 | > 10 | > 10 | > 10 | > 10 | 0 | 0 | 0 | 0 | 0 |
| C=CCc1ccc(O)c(-c2cc(CC=C)ccc2O)c1 [magnolol] | 97.8 | 85.7 | 97.8 | 102 | 106 | 98.6 | 98.3 | 98.9 | 101 | 94.8 | 104 | 95.3 | 88.6 | 102 | 89.5 | 99.3 | 90.3 | 90.3 | 99.4 | 110 | 96.7 | 102 | 99.2 | 102 | 95.3 | > 10 | > 10 | > 10 | > 10 | > 10 | 0 | 0 | 0 | 0 | 0 |
